Measurements published in US4048299A, “Anticaries confectionaries and oral health products” (William Wrigley, Jr. Co., priority 1970, dated 1977).

Columns and labels:
Streptococcus sp. FA-1 = assay: Acid production inhibition, broth-tube technique; settings: single agent
From the text: The data was compiled through well-known broth tube analysis techniques.
(a)Measured by broth-tube technique.

Streptococcus spp. KI-R [1] = assay: Growth inhibition by aldehydes in product vehicles, pour-plate technique; assay type: cell-based; settings: 1 to 5 percent aldehyde
In short: (§1)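 Aldehydes (1 to 5 percent by weight) were formulated into syrups, candies, mouthwash, toothpaste or toothpowder, added directly or as aqueous extracts to medium without a carbon source mixed 1:1 with filter-sterilized human saliva. Sugar came from the product or added sucrose. Growth over up to 24 hours was read by pour-plate count.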

[2] = system: Mixed human oral microorganisms; assay: as above; assay type: cell-based; settings: 1 to 5 percent aldehyde
In short: as §1

[3] = system: Lactobacillus casei ATCC 4646; assay: as above; assay type: cell-based; settings: 1 to 5 percent aldehyde
In short: as §1

Streptococcus spp. KI-R [4] = assay: Acid production inhibition by aldehydes in product vehicles, broth-tube technique; assay type: cell-based; settings: 1 to 5 percent aldehyde
[5] = In vivo caries evaluation, Osborne-Mendel strain 1 rat; set-up: species or system rat (Osborne-Mendel strain 1); Caries Score, Mean Incidence / Caries Score, Mean Extent: scale not given here; settings: Table I, 90 days
From the text: Standard laboratory techniques were used to complie the data presented. In each case the aldehyde was incorporated into each specimen's food in a one percent, by weight, quantity, over a period of several weeks. In all cases, caries reduction was noted.
The aldehydes tested in vivo were pyruvaldehyde, d,1-glyceraldehyde, crystalline dimer, glycolaldehyde, octanaldehyde, nonanaldehyde, decanaldehyde, undecylenic aldehyde, and lauric aldehyde. The polyaldehydes tested were dialdehyde starch, dialdehyde starch 50 percent oxidized, dialdehyde starch 90 percent oxidized, and dialdehyde galactomannan gum.
^(a) Agents were incorporated in the diet at a 1 percent level.

[6] = in compressed candy tablet, 2 h incubation
[7] = in compressed candy tablet, 5 h incubation
[8] = in compressed candy tablet, 24 h incubation
[9] = in dextrose syrup, 2 h incubation
[10] = in dextrose syrup, 5 h incubation
[11] = in dextrose syrup, 24 h incubation
[12] = in sucrose syrup, 2 h incubation
[13] = in sucrose syrup, 5 h incubation
[14] = in sucrose syrup, 24 h incubation
[15] = in tooth powder (aqueous extract), 2 h incubation
[16] = in tooth powder (aqueous extract), 5 h incubation
[17] = in tooth powder (aqueous extract), 24 h incubation
[18] = in toothpaste (aqueous extract), 2 h incubation
[19] = in toothpaste (aqueous extract), 5 h incubation
[20] = in toothpaste (aqueous extract), 24 h incubation
[21] = Student's test, 95 percent confidence limit

## O=C[C@H](O)CO (racemic) [d,1-Glyceraldehyde]
Streptococcus sp. FA-1; 0.01 percent
  Acid Production Inhibition: 4%
Streptococcus sp. FA-1; 0.015 percent
  Acid Production Inhibition: 10%
Streptococcus sp. FA-1; 0.02 percent
  Acid Production Inhibition: 21%
Streptococcus spp. KI-R [1]; [6]
  Growth Inhibition: 0 Per Cent
Streptococcus spp. KI-R [1]; [7]
  Growth Inhibition: N.S.
Streptococcus spp. KI-R [1]; [8]
  Growth Inhibition: N.S.
Streptococcus spp. KI-R [1]; [9]
  Growth Inhibition: 98 Per Cent
Streptococcus spp. KI-R [1]; [10]
  Growth Inhibition: > 99.99 Per Cent
Streptococcus spp. KI-R [1]; [11]
  Growth Inhibition: > 100 Per Cent
Streptococcus spp. KI-R [1]; in mouthwash, 2 h incubation
  Growth Inhibition: > 99.99 Per cent
Streptococcus spp. KI-R [1]; in mouthwash, 5 h incubation
  Growth Inhibition: 99.99 Per cent
Streptococcus spp. KI-R [1]; in mouthwash, 24 h incubation
  Growth Inhibition: 100 Per cent
Streptococcus spp. KI-R [1]; [12]
  Growth Inhibition: 90 Per cent
Streptococcus spp. KI-R [1]; [13]
  Growth Inhibition: 90 Per cent
Streptococcus spp. KI-R [1]; [14]
  Growth Inhibition: 99 Per cent
Streptococcus spp. KI-R [1]; [15]
  Growth Inhibition: 99.88 Per cent
Streptococcus spp. KI-R [1]; [16]
  Growth Inhibition: 99.99 Per cent
Streptococcus spp. KI-R [1]; [17]
  Growth Inhibition: 100 Per cent
Streptococcus spp. KI-R [1]; [18]
  Growth Inhibition: N.S.
Streptococcus spp. KI-R [1]; [19]
  Growth Inhibition: N.S.
Streptococcus spp. KI-R [1]; [20]
  Growth Inhibition: 0 Per cent
[2]; [6]
  Growth Inhibition: 99.7 Per Cent
[2]; [7]
  Growth Inhibition: 99.99 Per Cent
[2]; [8]
  Growth Inhibition: N.S.
[2]; [9]
  Growth Inhibition: 97.5 Per Cent
[2]; [10]
  Growth Inhibition: > 99.99 Per Cent
[2]; [11]
  Growth Inhibition: 0 Per Cent
[2]; in mouthwash, 2 h incubation
  Growth Inhibition: 95.0 Per cent
[2]; in mouthwash, 5 h incubation
  Growth Inhibition: 99.98 Per cent
[2]; in mouthwash, 24 h incubation
  Growth Inhibition: N.S.
[2]; [12]
  Growth Inhibition: 96 Per cent
[2]; [13]
  Growth Inhibition: 99.6 Per cent
[2]; [14]
  Growth Inhibition: 0 Per cent
[2]; [15]
  Growth Inhibition: N.S.
[2]; [16]
  Growth Inhibition: 99.3 Per cent
[2]; [17]
  Growth Inhibition: N.S.
[2]; [18]
  Growth Inhibition: 97 Per cent
[2]; [19]
  Growth Inhibition: N.S.
[2]; [20]
  Growth Inhibition: 100 Per cent
[3]; [6]
  Growth Inhibition: N.S.
[3]; [7]
  Growth Inhibition: N.S.
[3]; [8]
  Growth Inhibition: 100 Per Cent
[3]; [9]
  Growth Inhibition: N.S.
[3]; [10]
  Growth Inhibition: N.S.
[3]; [11]
  Growth Inhibition: > 99.99 Per Cent
[3]; [12]
  Growth Inhibition: 0 Per cent
[3]; [13]
  Growth Inhibition: N.S.
[3]; [14]
  Growth Inhibition: 99 Per cent
[3]; [15]
  Growth Inhibition: N.S.
[3]; [16]
  Growth Inhibition: N.S.
[3]; [17]
  Growth Inhibition: 99.3 Per cent
[3]; [18]
  Growth Inhibition: N.S.
[3]; [19]
  Growth Inhibition: N.S.
[3]; [20]
  Growth Inhibition: 100 Per cent
Streptococcus spp. KI-R [4]; [6]
  Acid Production Inhibition: 0 Per Cent
Streptococcus spp. KI-R [4]; [7]
  Acid Production Inhibition: 25 Per Cent
Streptococcus spp. KI-R [4]; [8]
  Acid Production Inhibition: 84 Per Cent
Streptococcus spp. KI-R [4]; [9]
  Acid Production Inhibition: 48 Per Cent
Streptococcus spp. KI-R [4]; [10]
  Acid Production Inhibition: 86 Per Cent
Streptococcus spp. KI-R [4]; [11]
  Acid Production Inhibition: 82 Per Cent
Streptococcus spp. KI-R [4]; in mouthwash, 2 h incubation
  Acid Production Inhibition: 0 Per cent
Streptococcus spp. KI-R [4]; in mouthwash, 5 h incubation
  Acid Production Inhibition: 0 Per cent
Streptococcus spp. KI-R [4]; in mouthwash, 24 h incubation
  Acid Production Inhibition: 86 Per cent
Streptococcus spp. KI-R [4]; [12]
  Acid Production Inhibition: 69 Per cent
Streptococcus spp. KI-R [4]; [13]
  Acid Production Inhibition: 88 Per cent
Streptococcus spp. KI-R [4]; [14]
  Acid Production Inhibition: 86 Per cent
Streptococcus spp. KI-R [4]; [15]
  Acid Production Inhibition: 0 Per cent
Streptococcus spp. KI-R [4]; [16]
  Acid Production Inhibition: 0 Per cent
Streptococcus spp. KI-R [4]; [17]
  Acid Production Inhibition: 0 Per cent
Streptococcus spp. KI-R [4]; [18]
  Acid Production Inhibition: 0 Per cent
Streptococcus spp. KI-R [4]; [19]
  Acid Production Inhibition: 0 Per cent
Streptococcus spp. KI-R [4]; [20]
  Acid Production Inhibition: 0 Per cent

## O=CCO [Glycolaldehyde]
[5]; 1 percent in diet, RCD control 23.3 (pyruvaldehyde test), 12.85 (glycolaldehyde test)
  Caries Score, Mean Incidence: 5.53
[5]; 1 percent in diet, RCD control 64.8 (pyruvaldehyde test), 35.45 (glycolaldehyde test)
  Caries Score, Mean Extent: 13.19
[5]; [21]
  Caries Extent Reduction, statistical evaluation: Significant
  Caries Incidence Reduction, statistical evaluation: Significant
Streptococcus sp. FA-1; 0.02 percent
  Acid Production Inhibition: 19%
Streptococcus sp. FA-1; 0.03 percent
  Acid Production Inhibition: 39%
Streptococcus sp. FA-1; 0.04 percent
  Acid Production Inhibition: 72%
Streptococcus spp. KI-R [1]; [6]
  Growth Inhibition: 99.9 Per Cent
Streptococcus spp. KI-R [1]; [7]
  Growth Inhibition: N.S.
Streptococcus spp. KI-R [1]; [8]
  Growth Inhibition: N.S.
Streptococcus spp. KI-R [1]; [9]
  Growth Inhibition: 99.1 Per Cent
Streptococcus spp. KI-R [1]; [10]
  Growth Inhibition: 100 Per Cent
Streptococcus spp. KI-R [1]; [11]
  Growth Inhibition: 100 Per Cent
Streptococcus spp. KI-R [1]; in mouthwash, 2 h incubation
  Growth Inhibition: 99.98 Per cent
Streptococcus spp. KI-R [1]; in mouthwash, 5 h incubation
  Growth Inhibition: 100 Per cent
Streptococcus spp. KI-R [1]; in mouthwash, 24 h incubation
  Growth Inhibition: 100 Per cent
Streptococcus spp. KI-R [1]; [12]
  Growth Inhibition: 80 Per cent
Streptococcus spp. KI-R [1]; [13]
  Growth Inhibition: > 99.9 Per cent
Streptococcus spp. KI-R [1]; [14]
  Growth Inhibition: > 99.99 Per cent
Streptococcus spp. KI-R [1]; [15]
  Growth Inhibition: N.S.
Streptococcus spp. KI-R [1]; [16]
  Growth Inhibition: 93.3 Per cent
Streptococcus spp. KI-R [1]; [17]
  Growth Inhibition: 100 Per cent
Streptococcus spp. KI-R [1]; [18]
  Growth Inhibition: 0 Per cent
Streptococcus spp. KI-R [1]; [19]
  Growth Inhibition: N.S.
Streptococcus spp. KI-R [1]; [20]
  Growth Inhibition: N.S.
[2]; [6]
  Growth Inhibition: 99.3 Per Cent
[2]; [7]
  Growth Inhibition: 100 Per Cent
[2]; [8]
  Growth Inhibition: 100 Per Cent
[2]; [9]
  Growth Inhibition: 99 Per Cent
[2]; [10]
  Growth Inhibition: 100 Per Cent
[2]; [11]
  Growth Inhibition: 91.4 Per Cent
[2]; in mouthwash, 2 h incubation
  Growth Inhibition: 99.7 Per cent
[2]; in mouthwash, 5 h incubation
  Growth Inhibition: 100 Per cent
[2]; in mouthwash, 24 h incubation
  Growth Inhibition: 99.90 Per cent
[2]; [12]
  Growth Inhibition: 98 Per cent
[2]; [13]
  Growth Inhibition: > 99.99 Per cent
[2]; [14]
  Growth Inhibition: > 99 Per cent
[2]; [15]
  Growth Inhibition: N.S.
[2]; [16]
  Growth Inhibition: 99.97 Per cent
[2]; [17]
  Growth Inhibition: 100 Per cent
[2]; [18]
  Growth Inhibition: N.S.
[2]; [19]
  Growth Inhibition: N.S.
[2]; [20]
  Growth Inhibition: 100 Per cent
[3]; [6]
  Growth Inhibition: N.S.
[3]; [7]
  Growth Inhibition: 97.3 Per Cent
[3]; [8]
  Growth Inhibition: 100 Per Cent
[3]; [9]
  Growth Inhibition: N.S.
[3]; [10]
  Growth Inhibition: 98 Per Cent
[3]; [11]
  Growth Inhibition: 100 Per Cent
[3]; [12]
  Growth Inhibition: N.S.
[3]; [13]
  Growth Inhibition: 93 Per cent
[3]; [14]
  Growth Inhibition: > 99.99 Per cent
[3]; [15]
  Growth Inhibition: N.S.
[3]; [16]
  Growth Inhibition: N.S.
[3]; [17]
  Growth Inhibition: 99.99 Per cent
[3]; [18]
  Growth Inhibition: 0 Per cent
[3]; [19]
  Growth Inhibition: N.S.
[3]; [20]
  Growth Inhibition: 100 Per cent
Streptococcus spp. KI-R [4]; [6]
  Acid Production Inhibition: 0 Per Cent
Streptococcus spp. KI-R [4]; [7]
  Acid Production Inhibition: 0 Per Cent
Streptococcus spp. KI-R [4]; [8]
  Acid Production Inhibition: 73 Per Cent
Streptococcus spp. KI-R [4]; [9]
  Acid Production Inhibition: 57 Per Cent
Streptococcus spp. KI-R [4]; [10]
  Acid Production Inhibition: 81 Per Cent
Streptococcus spp. KI-R [4]; [11]
  Acid Production Inhibition: 77 Per Cent
Streptococcus spp. KI-R [4]; in mouthwash, 2 h incubation
  Acid Production Inhibition: 0 Per cent
Streptococcus spp. KI-R [4]; in mouthwash, 5 h incubation
  Acid Production Inhibition: 0 Per cent
Streptococcus spp. KI-R [4]; in mouthwash, 24 h incubation
  Acid Production Inhibition: 78 Per cent
Streptococcus spp. KI-R [4]; [12]
  Acid Production Inhibition: 19 Per cent
Streptococcus spp. KI-R [4]; [13]
  Acid Production Inhibition: 85 Per cent
Streptococcus spp. KI-R [4]; [14]
  Acid Production Inhibition: 84 Per cent
Streptococcus spp. KI-R [4]; [15]
  Acid Production Inhibition: 0 Per cent
Streptococcus spp. KI-R [4]; [16]
  Acid Production Inhibition: 0 Per cent
Streptococcus spp. KI-R [4]; [17]
  Acid Production Inhibition: 0 Per cent
Streptococcus spp. KI-R [4]; [18]
  Acid Production Inhibition: 0 Per cent
Streptococcus spp. KI-R [4]; [19]
  Acid Production Inhibition: 0 Per cent
Streptococcus spp. KI-R [4]; [20]
  Acid Production Inhibition: 0 Per cent
